What is called inhibition is the drop in the measured response relative to a control, in per cent.

Details in all cases: Compound concentration 10 µM
Test [1] has as its target T1, Alpha-1D adrenergic receptor (Homo sapiens) (UniProt P25100).
T1 sequence (whole entry): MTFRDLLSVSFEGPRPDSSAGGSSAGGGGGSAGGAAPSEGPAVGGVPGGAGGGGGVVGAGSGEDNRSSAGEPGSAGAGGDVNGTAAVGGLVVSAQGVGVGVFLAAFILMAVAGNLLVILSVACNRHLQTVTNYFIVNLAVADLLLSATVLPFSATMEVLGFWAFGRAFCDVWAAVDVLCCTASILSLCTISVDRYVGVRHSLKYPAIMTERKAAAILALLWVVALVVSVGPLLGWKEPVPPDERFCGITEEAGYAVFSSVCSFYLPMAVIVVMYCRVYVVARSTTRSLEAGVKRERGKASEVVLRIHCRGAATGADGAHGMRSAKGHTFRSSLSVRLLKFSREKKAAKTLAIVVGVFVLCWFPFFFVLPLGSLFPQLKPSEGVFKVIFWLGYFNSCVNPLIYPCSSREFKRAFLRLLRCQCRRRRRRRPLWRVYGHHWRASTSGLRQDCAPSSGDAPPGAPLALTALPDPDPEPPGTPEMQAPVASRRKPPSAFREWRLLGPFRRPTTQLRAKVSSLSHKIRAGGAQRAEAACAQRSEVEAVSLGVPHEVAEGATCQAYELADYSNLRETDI
Description: PDSP Primary Binding target: ADRA1D - Compounds are tested at 10 uM concentration, plate are incubated at room temperature in the dark for 90 minutes. Reaction are stopped by vacuum filtration onto 0.3% polyethyleneimine soaked filter mats using Filtermate harvester. Scintilation cocktail is then melted onto microwave-dried filters on a hot plate and the radio activity is counted in Microbia counter.

The target in test [2] is T2, Muscarinic acetylcholine receptor M5 (Homo sapiens) (UniProt P08912).
T2 sequence (whole entry): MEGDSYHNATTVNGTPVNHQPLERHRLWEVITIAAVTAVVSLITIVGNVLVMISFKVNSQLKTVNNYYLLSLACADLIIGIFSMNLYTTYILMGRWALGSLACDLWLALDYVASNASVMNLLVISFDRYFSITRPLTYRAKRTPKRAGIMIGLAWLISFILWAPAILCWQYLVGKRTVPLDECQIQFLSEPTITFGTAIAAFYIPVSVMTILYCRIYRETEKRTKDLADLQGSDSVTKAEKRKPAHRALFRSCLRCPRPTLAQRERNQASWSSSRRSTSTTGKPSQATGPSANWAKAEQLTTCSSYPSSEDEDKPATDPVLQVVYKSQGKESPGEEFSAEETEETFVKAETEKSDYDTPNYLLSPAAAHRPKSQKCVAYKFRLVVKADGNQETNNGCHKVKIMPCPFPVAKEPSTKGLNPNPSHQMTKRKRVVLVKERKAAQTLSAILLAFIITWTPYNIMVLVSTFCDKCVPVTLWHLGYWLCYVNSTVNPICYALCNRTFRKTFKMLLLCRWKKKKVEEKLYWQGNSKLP
Description: PDSP Primary Binding target: CHRM5 - Compounds are tested at 10 uM concentration, plate are incubated at room temperature in the dark for 90 minutes. Reaction are stopped by vacuum filtration onto 0.3% polyethyleneimine soaked filter mats using Filtermate harvester. Scintilation cocktail is then melted onto microwave-dried filters on a hot plate and the radio activity is counted in Microbia counter.

For test [3], the target named is Sodium-dependent serotonin transporter (Homo sapiens) (UniProt P31645).
Description: PDSP Primary Binding target: SLC6A4 - Compounds are tested at 10 uM concentration, plate are incubated at room temperature in the dark for 90 minutes. Reaction are stopped by vacuum filtration onto 0.3% polyethyleneimine soaked filter mats using Filtermate harvester. Scintilation cocktail is then melted onto microwave-dried filters on a hot plate and the radio activity is counted in Microbia counter.
The target of test [4] is T3, Alpha-2A adrenergic receptor (Homo sapiens) (UniProt P08913).
T3 sequence (whole entry): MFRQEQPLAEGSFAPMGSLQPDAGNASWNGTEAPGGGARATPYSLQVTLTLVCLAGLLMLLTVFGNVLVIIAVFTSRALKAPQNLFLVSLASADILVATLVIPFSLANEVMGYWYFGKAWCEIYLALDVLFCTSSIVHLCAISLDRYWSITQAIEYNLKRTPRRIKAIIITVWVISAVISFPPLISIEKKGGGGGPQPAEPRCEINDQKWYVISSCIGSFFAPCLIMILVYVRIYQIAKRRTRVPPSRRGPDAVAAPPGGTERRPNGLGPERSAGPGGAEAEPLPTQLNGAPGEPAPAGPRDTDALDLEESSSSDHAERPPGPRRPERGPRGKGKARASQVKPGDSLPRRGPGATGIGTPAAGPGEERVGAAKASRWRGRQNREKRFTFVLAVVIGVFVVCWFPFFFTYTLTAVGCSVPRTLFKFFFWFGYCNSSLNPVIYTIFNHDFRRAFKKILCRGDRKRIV
Description: PDSP Primary Binding target: ADRA2A - Compounds are tested at 10 uM concentration, plate are incubated at room temperature in the dark for 90 minutes. Reaction are stopped by vacuum filtration onto 0.3% polyethyleneimine soaked filter mats using Filtermate harvester. Scintilation cocktail is then melted onto microwave-dried filters on a hot plate and the radio activity is counted in Microbia counter.

Sodium-dependent serotonin transporter (Homo sapiens), sequence (P31645 whole entry, looked up): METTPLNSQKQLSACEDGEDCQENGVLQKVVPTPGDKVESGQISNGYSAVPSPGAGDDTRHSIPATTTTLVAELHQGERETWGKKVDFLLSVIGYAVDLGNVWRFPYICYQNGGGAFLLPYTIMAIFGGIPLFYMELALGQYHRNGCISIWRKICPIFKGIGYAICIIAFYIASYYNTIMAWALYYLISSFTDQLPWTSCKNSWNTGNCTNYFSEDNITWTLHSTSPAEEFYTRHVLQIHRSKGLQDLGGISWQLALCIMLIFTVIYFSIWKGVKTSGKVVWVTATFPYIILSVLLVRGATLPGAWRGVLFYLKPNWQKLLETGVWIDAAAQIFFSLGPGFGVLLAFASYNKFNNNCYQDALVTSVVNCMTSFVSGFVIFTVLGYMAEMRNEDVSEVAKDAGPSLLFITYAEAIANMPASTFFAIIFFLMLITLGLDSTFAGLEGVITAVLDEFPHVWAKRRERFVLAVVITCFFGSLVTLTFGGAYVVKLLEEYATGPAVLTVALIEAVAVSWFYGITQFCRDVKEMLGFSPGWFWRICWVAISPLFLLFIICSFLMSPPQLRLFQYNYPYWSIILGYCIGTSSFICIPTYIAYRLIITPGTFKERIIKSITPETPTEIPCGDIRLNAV

For the molecule `COC1CCN(c2cccc(-c3cc(NC(C)=O)nc(-n4nc(C)cc4C)n3)n2)CC1`, the inhibition was 17.4% in test [1] and -2.53% in test [2].

Regarding `Cc1csc(NC(=O)c2cc(F)cc(Oc3cncnc3)c2)n1`, in test [3], the inhibition is 21.2%.

`Cc1nnn(-c2ccc(-c3ccc(C4(C(=O)O)CC4)cc3)cc2)c1NC(=O)O[C@H](C)c1ccccc1`: the inhibition in test [1] is 23.9%; in test [4], 0.57%.

Values taken from ChEMBL document CHEMBL5442219.
